From publication PMC10755736, “Modulating Liquid–Liquid Phase Separation of Nck Adaptor Protein against Enteropathogenic Escherichia coli Infection” (ACS Central Science, 2023)
Non-standard residues stand in square brackets, D forms with d. Residues, ends and D or L forms follow the SMILES beside them. *: point of attachment. Biotin = O=C1N[C@H]2[C@H](CS[C@H]2CCCCC(=O)*)N1; Benzoyl(4-SO2F) = O=C(c1ccc(S(=O)(=O)F)cc1)*; pY = N[C@@H](Cc1ccc(OP(=O)(O)O)cc1)C(=O)O; Dap = NC[C@H](N)C(=O)O

System: Nck puncta in Caco-2 cells
Test: Nck puncta number in Caco-2 cells overexpressing dsRed-Nck
Type: cell-based
Conditions: L17E 40 μM, p1 1 μM, N = 20 cells
Text: Figure 6 Peptide p1 inhibits the formation of the Nck/N-WASP condensate in mammalian cells. (a) Schematic illustration showing inhibition of intracellular Nck coacervation by p1. (b) Confocal microscopic images showing the formation of Nck/N-WASP puncta in HeLa cells that overexpress GFP-N-WASP and dsRed-Nck. Scale bar: 10 μm. (c) FRAP analysis showing the Nck/N-WASP condensates in HeLa cells have fluidity properties based on the recovery of the GFP fluorescent signal after photobleaching in a two-photon microscope with excitation at 920 nm. Scale bar: 5 μm. […] L17E, 40 μM; p1, 1 μM. Statistical analyses of puncta number per cell in the control and experiment (L17E/p1). N = 20 cells. […]
concentrations were added to each well, followed by a 90-min incubation at 37 °C. Diluted streptavidin-HRP solution was then added, followed by substrate solution to develop cover at 450 nm, and recorded by a plate reader. […] And then the samples were scanned and measured at 20% IR Laser power with 30 s laser-on time on a Monolith NT.115 instrument (NanoTemper Technologies). The data were analyzed by KD fitting model (KD) or hill fitting model […]
Plasmid extraction was done using a plasmid DNA Maxi kit (Omega Bio-Tek, GA, USA). […] 48 h after transfection, cells were analyzed by fluorescent micrscopes. Cell viability was measured by a CCK8 assay (Thermo Fisher Scientific) according to its manual.

## CC[C@H](C)[C@H](NC(=O)[C@H](Cc1c[nH]cn1)NC(=O)[C@H](CCC(=O)O)NC(=O)[C@H](CCC(=O)O)NC(=O)CCCC[C@@H]1SC[C@@H]2NC(=O)N[C@@H]21)C(=O)N[C@@H](Cc1ccc(OP(=O)(O)O)cc1)C(=O)N[C@@H](CNC(=O)c1ccc(S(=O)(=O)F)cc1)C(=O)N[C@@H](CCC(=O)O)C(=O)N[C@H](C(=O)N[C@@H](C)C(=O)N[C@@H](C)C(=O)N[C@@H](CC(=O)O)C(N)=O)C(C)C [p1] (Biotin-EEHI[pY][Dap](Benzoyl(4-SO2F))EVAAD-NH2; N-terminus and C-terminus assumed)
  number of Nck puncta: reduced the number of Nck puncta
2 h
  decline in Nck puncta numbers: 50%
